Earlier results, collected in patent US10610500B2, “Chemosensory receptor ligand-based therapies” (Anji Pharma (US) LLC, priority 2011, dated 2020).

Target: T1, sweet receptor (Homo sapiens, UniProt Q7RTX0+Q8TE23)
T1 sequence (Q8TE23 20-839): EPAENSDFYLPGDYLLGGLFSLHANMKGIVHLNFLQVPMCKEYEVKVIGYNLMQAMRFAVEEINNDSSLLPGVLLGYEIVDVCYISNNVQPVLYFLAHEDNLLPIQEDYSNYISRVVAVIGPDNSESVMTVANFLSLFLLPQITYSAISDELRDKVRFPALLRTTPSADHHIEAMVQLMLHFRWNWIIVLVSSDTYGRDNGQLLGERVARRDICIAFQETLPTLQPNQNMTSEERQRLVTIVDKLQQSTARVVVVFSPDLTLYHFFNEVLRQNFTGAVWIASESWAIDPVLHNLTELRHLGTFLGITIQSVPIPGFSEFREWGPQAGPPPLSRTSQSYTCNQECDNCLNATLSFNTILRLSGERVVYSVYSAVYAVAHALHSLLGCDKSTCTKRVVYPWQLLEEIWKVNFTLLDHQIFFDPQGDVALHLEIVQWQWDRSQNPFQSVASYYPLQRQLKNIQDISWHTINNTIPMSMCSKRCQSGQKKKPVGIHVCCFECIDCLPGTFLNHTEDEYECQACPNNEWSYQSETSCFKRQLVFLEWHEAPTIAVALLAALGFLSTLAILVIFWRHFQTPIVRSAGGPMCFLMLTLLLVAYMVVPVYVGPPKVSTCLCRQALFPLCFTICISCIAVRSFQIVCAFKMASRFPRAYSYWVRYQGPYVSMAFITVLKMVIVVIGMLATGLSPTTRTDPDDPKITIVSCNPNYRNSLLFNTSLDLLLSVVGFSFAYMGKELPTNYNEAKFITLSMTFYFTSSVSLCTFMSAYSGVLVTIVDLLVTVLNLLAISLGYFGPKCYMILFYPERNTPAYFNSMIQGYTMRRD
T1 sequence (Q7RTX0 21-852): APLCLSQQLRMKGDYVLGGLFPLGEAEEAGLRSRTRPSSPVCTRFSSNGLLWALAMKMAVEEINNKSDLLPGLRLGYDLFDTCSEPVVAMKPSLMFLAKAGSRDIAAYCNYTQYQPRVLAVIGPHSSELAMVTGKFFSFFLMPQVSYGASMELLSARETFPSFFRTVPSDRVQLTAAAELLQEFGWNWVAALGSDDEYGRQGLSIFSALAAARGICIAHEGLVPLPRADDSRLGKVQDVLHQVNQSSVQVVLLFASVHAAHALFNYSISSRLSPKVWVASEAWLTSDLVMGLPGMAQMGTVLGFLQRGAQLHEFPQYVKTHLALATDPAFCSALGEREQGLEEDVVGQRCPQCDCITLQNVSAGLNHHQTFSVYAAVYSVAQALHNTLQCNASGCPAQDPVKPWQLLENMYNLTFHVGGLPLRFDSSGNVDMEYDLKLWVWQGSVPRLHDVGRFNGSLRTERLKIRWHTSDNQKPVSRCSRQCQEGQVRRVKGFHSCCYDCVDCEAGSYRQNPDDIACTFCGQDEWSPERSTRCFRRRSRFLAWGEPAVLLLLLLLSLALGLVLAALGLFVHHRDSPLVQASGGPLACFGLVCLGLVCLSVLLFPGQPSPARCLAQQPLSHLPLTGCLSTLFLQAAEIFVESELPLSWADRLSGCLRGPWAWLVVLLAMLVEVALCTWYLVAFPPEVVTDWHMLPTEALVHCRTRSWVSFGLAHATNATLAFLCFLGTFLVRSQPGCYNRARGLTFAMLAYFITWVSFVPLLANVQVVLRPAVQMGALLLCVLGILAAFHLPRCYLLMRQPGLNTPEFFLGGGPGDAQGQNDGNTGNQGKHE
Settings: relative sweetness on a weight comparison basis to sucrose (=1.0); ranges: relative sweetness varied with the concentration of sucrose

Oc1cc2c(cc1O)[C@@H]1c3ccc(O)c(O)c3OC[C@]1(O)C2 [Hematoxylin]
Sweetness/potency: 120

Periandrin II
Sweetness/potency: 95

Baiyunoside
Sweetness/potency: 500

C=C(C)[C@@H]1CC=C(/C=N/O)CC1 [Perillartine]
Sweetness/potency: 370

C/C=C/c1ccc(OC)cc1 [trans-Anethole]
Sweetness/potency: 13

C=C(C)C1CCC2(C)C(CC(OC3OCC(O)C(O)C3O)C3C(C(C)(O)C/C=C/C(C)(C)O)CCC32C)C1(C)CCC(=O)O (stereo not shown) [Pterocaryoside B]
Sweetness/potency: 100

Albiziasaponin B
Sweetness/potency: 600

CC1(C)[C@@H](O[C@@H]2O[C@H](C(=O)O)[C@@H](O)[C@H](O)[C@H]2O[C@@H]2O[C@H](C(=O)O)[C@@H](O)[C@H](O)[C@H]2O)CC[C@]2(C=O)[C@H]3CC[C@@H]4C5=C[C@@](C)(C(=O)O)CC[C@]5(C)CC[C@@]4(C)[C@]3(C)CC[C@@H]12 [Periandrin I]
Sweetness/potency: 90

Cyclocaryoside I
Sweetness/potency: 250

COc1c(O)cc2c(c1O)C(=O)[C@H](OC(C)=O)[C@@H](c1ccc(O)cc1)O2 [(2R,3R)-2,3-Dihydro-5,7,4'-trihydroxy-6-methoxy-3-O-acetylflavonol]
Sweetness/potency: 20

Polypodoside A
Sweetness/potency: 600

CC1(C)[C@@H](O[C@H]2O[C@H](C(=O)O)[C@@H](O)[C@H](O)[C@H]2O[C@@H]2OC[C@H](O)[C@H](O)[C@H]2O)CC[C@]2(C)[C@H]3C(=O)C=C4[C@@H]5C[C@@](C)(C(=O)O)CC[C@]5(C)CC[C@@]4(C)[C@]3(C)CC[C@@H]12 [Araboglycyrrhizin]
Sweetness/potency: 150

Oc1ccc([C@H]2Oc3c(c(O)cc4c3[C@H]3c5c(O)cc(O)cc5O[C@@](c5ccc(O)cc5)(O4)[C@@H]3O)[C@H](c3c(O)cc(O)c4c3O[C@H](c3ccc(O)cc3)[C@@H](O)C4)[C@H]2O)cc1 [Selligueain A]
Sweetness/potency: 35

C[C@@H]1O[C@@H](O[C@H]2O[C@@H]([C@@H](C)C3CC[C@@H]4[C@H]5CC(=O)[C@@H]6C[C@H](O[C@@H]7O[C@H](CO)[C@@H](O)[C@H](O)[C@H]7O[C@@H]7O[C@@H](C)[C@H](O)[C@@H](O)[C@H]7O)CC[C@]6(C)[C@@H]5CC[C@]34C)CC[C@@H]2C)[C@H](O)[C@H](O)[C@H]1O (stereo partly shown) [Osladin]
Sweetness/potency: 500

Rebaudioside B
Sweetness/potency: 150

COC(=O)[C@H]1O[C@@H](O[C@H]2[C@H](O[C@H]3CC[C@]45C[C@]46CC[C@]4(C)[C@@H]([C@H](C)[C@@H]7CC=C(C)C(=O)O7)CC[C@@]4(C)[C@@H]6CC[C@H]5[C@]3(C)C(=O)O)O[C@H](CO)[C@@H](O)[C@@H]2O)[C@H](O)[C@@H](O)[C@@H]1O [Abrusoside B]
Sweetness/potency: 100

CC1(C)C[C@H]2C3=CC[C@@H]4[C@@]5(C)CC[C@H](O[C@@H]6O[C@H](CO[C@@H]7OC[C@H](O)[C@H](O)[C@H]7O[C@@H]7OC[C@@H](O)[C@H](O)[C@H]7O)[C@@H](O)[C@H](O)[C@H]6O)C(C)(C)[C@@H]5CC[C@@]4(C)[C@]3(C)C[C@@H](O)[C@@]23C[C@@H]1OC3=O [Albiziasaponin A]
Sweetness/potency: 5

COc1ccc(CCC(=O)c2c(O)cc(O[C@@H]3O[C@H](CO)[C@@H](O)[C@H](O)[C@H]3O[C@@H]3O[C@@H](C)[C@H](O)[C@@H](O)[C@H]3O)cc2O)cc1O [Neohesperidin dihydrochalcone]
Sweetness/potency: 1,000

COc1c(O)cc2c(c1O)C(=O)[C@H](OC(C)=O)[C@@H](c1ccc(O)c(O)c1)O2 [(2R,3R)-2,3-Dihydro-5,7,3',4'-tetrahydroxy-6-methoxy-3-O-acetylflavonol]
Sweetness/potency: 25

CC1(C(=O)O)C=C2C3CCC4C5(C=O)CCC(OC6OC(C(=O)O)C(O)C(O)C6OC6OCC(O)C(O)C6O)C(C)(C)C5CCC4(C)C3(C)CCC2(C)CC1 (stereo not shown) [Periandrin V]
Sweetness/potency: 220

C/C(=C\CC/C(C)=C/CO[C@@H]1O[C@H](CO)[C@@H](O)[C@H](O[C@@H]2O[C@@H](C)[C@H](O)[C@@H](O)[C@H]2O)[C@H]1O[C@@H]1O[C@@H](C)[C@H](O)[C@@H](O)[C@H]1O)CC/C=C(\C)CO[C@@H]1O[C@H](CO)[C@@H](O)[C@H](O[C@@H]2O[C@@H](C)[C@H](O)[C@@H](O)[C@H]2O)[C@H]1O[C@@H]1O[C@@H](C)[C@H](O)[C@@H](O)[C@H]1O [Mukurozioside IIb]
Sweetness/potency: ca. 1

Pentadin
Sweetness/potency: 500

COc1c(O)cc2c(c1O)C(=O)[C@H](O)[C@@H](c1ccc(O)c(O)c1)O2 [(2R,3R)-2,3-Dihydro-5,7,3',4'-tetrahydroxy-6-methoxyflavonol]
Sweetness/potency: 15

Brazzein: sweet protein of Pentadiplandra brazzeana Baillon (QDKCKKVYENYPVSKCQLANQCNYDCKLDKHARSGECFYDEKRNLQCICDYCEY; UniProt P56552 1-54, looked up)
Sweetness/potency: 2,000

CC1(C(=O)O)CCC2(C)CCC3(C)C(=CC(=O)C4C5(C)CCC(OC6OC(C(=O)O)C(O)C(O)C6OC6OCC(O)(CO)C6O)C(C)(C)C5CCC43C)C2C1 (stereo not shown) [Apioglycyrrhizin]
Sweetness/potency: 300

C=C1C[C@@]23CC[C@H]4[C@@](C)(CCC[C@@]4(C)C(=O)O[C@@H]4O[C@H](CO)[C@@H](O)[C@H](O)[C@H]4O)[C@@H]2CC[C@]1(O[C@@H]1O[C@H](CO)[C@@H](O)[C@H](O)[C@H]1O[C@@H]1O[C@H](CO)[C@@H](O)[C@H](O)[C@H]1O)C3 [Stevioside]
Sweetness/potency: 210

C=C1C[C@@]23CC[C@H]4[C@@](C)(CCC[C@@]4(C)C(=O)O[C@@H]4O[C@H](CO)[C@@H](O)[C@H](O)[C@H]4O)[C@@H]2CC[C@]1(O[C@@H]1O[C@H](CO)[C@@H](O)[C@H](O)[C@H]1O[C@@H]1O[C@@H](C)[C@H](O)[C@@H](O)[C@H]1O)C3 [Dulcoside A]
Sweetness/potency: 30

CC1=CC[C@@H]([C@@H](C)[C@H]2CC[C@@]3(C)[C@@H]4CC[C@H]5[C@](C)(C(=O)O)[C@@H](O[C@@H]6O[C@H](CO)[C@@H](O)[C@H](O)[C@H]6O[C@@H]6O[C@H](C(=O)O)[C@@H](O)[C@H](O)[C@H]6O)CC[C@@]56C[C@@]46CC[C@]23C)OC1=O [Abrusoside D]
Sweetness/potency: 75

CC1=CC[C@@H]([C@@H](C)[C@H]2CC[C@@]3(C)[C@@H]4CC[C@H]5[C@](C)(C(=O)O)[C@@H](O[C@@H]6O[C@H](CO)[C@@H](O)[C@H](O)[C@H]6O[C@@H]6O[C@H](CO)[C@@H](O)[C@H](O)[C@H]6O)CC[C@@]56C[C@@]46CC[C@]23C)OC1=O [Abrusoside C]
Sweetness/potency: 50

Rebaudioside C
Sweetness/potency: 30

Curculin
Sweetness/potency: 550

O=C/C=C/c1ccccc1 [Trans-Cinnamaldehyde]
Sweetness/potency: 50

C/C(=C\CO)CCC1=C(C=O)CC(OC2OCC(O)C(O)C2O)C2C(C)(CO)CCCC12C (stereo not shown) [Gaudichaudioside A]
Sweetness/potency: 55

Periandrin IV
Sweetness/potency: 85

Carnosifloside V
Sweetness/potency: 51

CC1=CC[C@@H]([C@@H](C)[C@H]2CC[C@@]3(C)[C@@H]4CC[C@H]5[C@](C)(C(=O)O)[C@@H](O[C@@H]6O[C@H](CO)[C@@H](O)[C@H](O)[C@H]6O)CC[C@@]56C[C@@]46CC[C@]23C)OC1=O [Abrusoside A]
Sweetness/potency: 30

CC[C@@H](C)C(=O)O[C@@H](C)[C@]1(O)CC[C@]2(O)[C@@H]3CC[C@H]4C[C@@H](O[C@@H]5C[C@H](O)[C@H](O[C@H]6C[C@H](OC)[C@H](O[C@H]7C[C@@H](OC)[C@H](O[C@H]8C[C@@H](OC)[C@H](O[C@@H]9O[C@H](C)[C@@H](O[C@@H]%10O[C@H](CO)[C@@H](O)[C@H](O)[C@H]%10O)[C@H](OC)[C@H]9O)[C@@H](C)O8)[C@@H](C)O7)[C@@H](C)O6)[C@@H](C)O5)CC[C@]4(C)[C@H]3C[C@@H](OC(C)=O)[C@]12C [Telosmoside A15]
Sweetness/potency: 1000
